Source: BindingDB's records for doi:10.1016/j.bmc.2020.115622 (Kyowa Kirin, 2020)

Experiment: Inhibition of chemR23 expressed in human CAL1 cells assessed as reduction in chemerin-induced chemotaxis incubated for 4 hrs by cell counting based CellTiter-Glo assay

IC50 [nM]	Compound
235	CCCCN(c1nc2c(C(=O)O)cccc2o1)[C@H](C)c1ccc(-c2cc(Cl)ccc2-c2nc(=O)o[nH]2)cc1
63	Cc1ccc(-c2nc(=O)o[nH]2)c(-c2ccc([C@@H](C)N(CC3CC3)c3nc4c(C(=O)O)cccc4o3)cc2)c1
